# Source: article PMC8316002, “Inhibition of Escherichia coli Lipoprotein Diacylglyceryl Transferase Is Insensitive to Resistance Caused by Deletion of Braun’s Lipoprotein” (Journal of Bacteriology, 2021)
# Where a SMILES comes first, the peptide text is derived from it. Bridges are numbered along the chain shown (N, C = ends). [ ]: non-standard residue; d: D form. Bip = N[C@@H](Cc1ccc(-c2ccccc2)cc1)C(=O)O; NMeF = CN[C@@H](Cc1ccccc1)C(=O)O
# Tests used:
# [1] = Solubility (remark); assay type: physicochemical; details: prevented agar plate-based resistance selections
# [2] = tested on: CFT073 imp4213; test: Western blot of Lpp forms; assay type: cell-based, E. coli; details: 0.5× MIC, 30 min
# Description: (§1) Bacterial cell samples normalized for equivalent OD600 and resuspended in BugBuster lysis buffer (Fischer Scientific) with the addition of sample buffer (LI-COR), and proteins were separated by SDS-PAGE using 16% Tricine protein gels or NuPAGE 4% to 20% bis-Tris gels (Thermo Fisher Scientific), transferred to nitrocellulose membranes using the iBlot 2 dry blotting system (Invitrogen), and blocked using LI-COR blocking buffer for 30 min. Unless stated otherwise, loading buffer with reducing agents was added and samples were not boiled prior to SDS-PAGE. For the sucrose gradient centrifugation, samples were boiled prior to running the SDS-PAGE. Primary antibodies were used at a final concentration of 1 μg/ml with some exceptions: rabbit anti-Lpp polyclonal antibody (0.1 μg/ml), murine anti-Pal 6D7 antibody (0.5 μg/ml), rabbit anti-GroEL antibody (1:10,000 final dilution), and rabbit anti-OmpA antibody (1:50,000 final dilution). The secondary antibodies were all obtained from LI-COR and used as per manufacturer’s instructions. Images were collected using the Odyssey CLx imaging system (LI-COR) and analyzed by Image Studio Lite.
# [3] = tested on: BW25113 cells, lgt gRNA; test: CRISPRi knockdown sensitization, lgt gRNA; assay type: cell-based, E. coli; details: 2 μM G2824, 0.05 μM globomycin or 0.016 μM ciprofloxacin; OD600 relative to untreated, versus scr or folA gRNA
# Description: (§2) The two-plasmid bacterial CRISPRi system pdCas9-bacteria_GNE and PGNRNA-bacteria_GNE are based on the AddGene plasmids 44249 and 44251 ([73]), respectively. The plasmid was synthesized in smaller DNA fragments (500 bp to 3 kb) (IDT gBlocks) and assembled by Gibson assembly (NEB) according to the manufacturer’s protocols. Plasmids were confirmed by sequencing (ELIM Bio). gRNAs were designed to target the 5′ end of the gene on the nontemplate strand using Benchling CRISPR software ([74]). gRNAs were cloned into PGNRNA-bacteria using Gibson assembly (NEB) according to the manufacturer’s protocols and sequence confirmed (ELIM Bio).
# (§3) Bacterial cultures were grown overnight on LB agar supplemented with carbenicillin (50 μg/ml) and chloramphenicol (12.5 μg/ml) to maintain both plasmids, pdCas9-bacteria and PGNRNA-bacteria with each gRNA as appropriate. Cells were scraped from the plate into fresh medium. The OD600 was measured, and the culture was subsequently diluted to an OD600 0.001 in the presence or absence of G2824, globomycin, or ciprofloxacin. Two hundred microliters was transferred to a 96-well plate (Corning) and monitored for growth by measuring the OD600 (EnVision multimode plate reader; PerkinElmer). All treatments were performed in triplicates. The specificity of CRISPRi downregulation was measured using reverse transcriptase quantitative PCR (RT-qPCR).
# [4] = tested on: LspA; details: LspA inhibitor globomycin; cited from earlier work
# Description: Using a combination of biochemical and genetic strategies, we believe the Lgt inhibitor G2824 identified in this study inhibits bacterial cell growth through inhibition of the diacylglyceryl transferase activity of Lgt. First, G2824 was identified using a specific Lgt binding assay and confirmed to inhibit Lgt enzymatic function in vitro. Second, the results generated from pharmacologic inhibition of Lgt by G2824 in both CFT073 and MG1655 E. coli strains are highly consistent with the genetic depletion of Lgt, strongly arguing against off-target effects as a main cause of G2824 bactericidal ac ...
# [5] = tested on: MG1655 imp4213; test: Sucrose gradient centrifugation, IM and OM separation; assay type: cell-based, E. coli; details: 1× MIC, 60 min
# Description: Bacterial inner and outer membranes were separated by isopycnic sucrose gradient centrifugation as described previously ([75]) and by the Hancock Laboratory (http://cmdr.ubc.ca/bobh/method/outer-membrane-preparation-one-step-sucrose-gradient-procedure/), with some modifications. Briefly, bacteria were grown in Luria broth at 37°C to mid-exponential phase (OD600 of 0.8 to 0.9) and then treated with 1× MIC of designated inhibitors for 1 h. Cells representing equivalents of an OD600 of 10 were harvested by centrifugation at 4,000 × g for 15 min, washed once, and resuspended in cold 10 mM Tris, pH 8.0, containing 20% (wt/vol) sucrose, cOmplete EDTA-free protease inhibitor cocktail (Roche), and 1,000 U/ml nuclease (Benzonase nuclease; EMD Millipore). The cell suspension was disrupted by two passages through an LV1 Microfluidizer (Microfluidics). Unbroken cells were removed by centrifugation at 4,000 × g, and membranes were collected by ultracentrifugation at 100,000 × g for 1 h and washed once with cold 10 mM Tris, pH 8.0. The final membrane preparation was resuspended in 10 mM Tris, pH 8.0, containing 10% sucrose, cOmplete EDTA-free protease inhibitor cocktail (Roche), and 1,000 U/ml nuclease and then applied to the top of the sucrose gradients (73%, 60%, and 20%). The loaded gradients were spun at 39,000 rpm for 22 h at 4°C in a Beckman SW 41 Ti rotor. Fractions were collected from the top and analyzed by SDS-PAGE and immunoblotting with appropriate antibodies.
# [6] = tested on: BW25113 cells, lspA gRNA; test: CRISPRi knockdown sensitization, lspA gRNA; assay type: cell-based, E. coli; details: 2 μM G2824, 0.05 μM globomycin or 0.016 μM ciprofloxacin; OD600 relative to untreated, versus scr or folA gRNA
# Description: as §2, §3
# [7] = tested on: CFT073 imp4213 lpp^Ara; test: Western blot of Lpp forms, arabinose-inducible Lpp; assay type: cell-based, E. coli; details: Lpp induced with arabinose prior to treatment
# Description: Lpp expression was induced prior to treatment with G2824 or globomycin to minimize the level of preexisting triacylated Lpp.
# as §1
SMILES,solubility [1],accumulation of Lpp forms [2],sensitization by decreased lgt expression [3],on-target resistance mutations [4],IM accumulation of OM lipoproteins and OMPs [5],IM accumulation of PGN-linked Lpp [5],localization of OmpA [5],IM total protein and OM density ([5]; versus untreated),sensitization by decreased lspA expression [6],level of mature Lpp [7]
CN1C(=O)[C@H](Cc2ccc(-c3ccccc3)cc2)NC(=O)CNC(=O)[C@H](CC(=O)O)NC(=O)[C@@H](Cc2ccccc2)NC(=O)CSC[C@@H](C(=O)NCC(=O)N[C@@H](CCCCN)C(=O)N[C@@H](CCCCN)C(N)=O)NC(=O)[C@H](CCCNC(=N)N)NC(=O)[C@H](CO)NC(=O)[C@H](Cc2ccc(-c3ccccc3)cc2)NC(=O)[C@@H]1Cc1ccccc1 [G2824] ({CH2CO}-[dF]DG[Bip][NMeF][Bip]SRCGKK-NH2; thioether N-9),solubility issues,–,–,–,–,–,–,–,–,–
CCCCCC[C@H]1OC(=O)CNC(=O)[C@H]([C@H](C)O)NC(=O)[C@H](CO)NC(=O)[C@H]([C@H](C)CC)NC(=O)[C@H](CC(C)C)N(C)C(=O)[C@@H]1C [Globomycin],–,accumulation of DGPLP and other PGN-linked Lpp forms,not globomycin,no on-target resistance mutations have ever been identified,IM accumulation of OM lipoproteins (Pal and BamB) and OMPs (BamA and OmpA),"significant IM accumulation of PGN-linked Lpp, including DGPLP","mislocalization of the β-barrel protein, OmpA",increases in total protein levels in the IM fraction and a decrease in OM density,enhanced growth inhibition,decreased mature Lpp
